Source: patent US8808721B2, “Bed bug attractants and methods for trapping bed bugs” (SpringStar Inc., priority 2011, dated 2014)

Legend:
[1] = test system: bed bugs; test: ST traps, kairomone components (Example 9); type: in vivo, Cimex lectularius; conditions: combined with CO2 and heat, Location 4
Description: The kairomone composition of A1 was split into it components by chemical class, to determine if all components were necessary. Three new kairomone blends were tested (Table 3, Example 4). Blend A2 contained only skatole and androstenone (male boar compounds), and the adjuvants. Blend A3 contained all the ingredients from A1, but in slightly different ratios. Blend A4 contained only the fatty acid components and adjuvants. Four treatments were tested as follows: T0=CF1S+HW;T1=CF1+HW+A3;T2=CF1+HW+A2;T3=CF1+HW+A4
For treatment T0, the CO2 blend was made without skatole (CF1S, Table 1, Example 1). All treatments were tested using ST traps assembled as in Example 4.
A new location was used for testing kairomone components. Location 4 was an inhabited, 2-bedroom duplex in the suburbs of Seattle. Vacuum sampling estimated bed bug populations in each room at between 2,000 and 10,000 insects, which is considered heavily infested. Two people slept in the bedrooms on cots raised 50 cm off the carpet, which were then isolated from bed bugs in harborages by placing under each bed leg a plastic 16 oz drinking cup filled with propylene glycol or white pepper powder. […]

[2] = test system: bed bugs; test: ST traps, adding skatole to carbon dioxide bait (Example 10); set-up: species or system Cimex lectularius; conditions: in vivo
Description: Four ST traps from Example 3, baited with CF1, were paired with four ST traps baited with CF1S. Traps were placed in each of four corners of the location in Example 3. Traps were retrieved after one night. […] Additionally, all CF1 traps caught at least 2 bed bugs whereas half of the CF1S traps caught no bed bugs.

| SMILES | attractiveness of kairomone blend or component to bed bugs [1] | effect of adding to the fermentative mixture on trap attractiveness [2] |
| --- | --- | --- |
| C[C@]12CCC(=O)C[C@@H]1CC[C@@H]1[C@@H]2CC[C@]2(C)C=CC[C@@H]12 [androstenone] | acted synergistically with the fatty acid compounds to attract bed bugs |  |
| Cc1c[nH]c2ccccc12 [skatole, 3-methyl indole] |  | increased trap attractiveness to bed bugs |
